In brackets after ≈: the same amount, converted by molar mass.
Experiments:
Experiment in all cases: antibacterial activity (MIC), broth dilution method
Format in all cases: cell-based
Ser. Marcescens, 10104 = details: Serratia marcescens, Muller-Hinton broth, 10^5 /ml bacteria, 37° C., 18 hours, read-out: Minimal Inhibitory Concentration (MIC)
Protocol: (§1) On some of the compounds according to the present invention, the antibacterial activity was determined by broth dilution method in Muller-Hinton broth in which 10^5 /ml of bacteria were seaded and incubated at 37° C. for 18 hours.

Ps. aeruginosa, 32233 = details: Pseudomonas aeruginosa, Muller-Hinton broth, 10^5 /ml bacteria, 37° C., 18 hours, read-out: Minimal Inhibitory Concentration (MIC)
Protocol: as §1

S. aureus, 209P = details: Staphylococcus aureus, Muller-Hinton broth, 10^5 /ml bacteria, 37° C., 18 hours, read-out: Minimal Inhibitory Concentration (MIC)
Protocol: as §1

E. coli, NIHJ = details: Escherichia coli, Muller-Hinton broth, 10^5 /ml bacteria, 37° C., 18 hours, read-out: Minimal Inhibitory Concentration (MIC)
Protocol: as §1

Ent. cloacae, 03400 = details: Enterobacter cloacae, Muller-Hinton broth, 10^5 /ml bacteria, 37° C., 18 hours, read-out: Minimal Inhibitory Concentration (MIC)
Protocol: as §1

MIC (Ser. Marcescens, 10104) [µg/mL] | MIC (Ps. aeruginosa, 32233) [µg/mL] | MIC (S. aureus, 209P) [µg/mL] | MIC (E. coli, NIHJ) [µg/mL] | MIC (Ent. cloacae, 03400) [µg/mL] | SMILES
0.78 (≈ 2.2 µM) | 25 (≈ 70.5 µM) | ≤ 0.05 | ≤ 0.05 | 0.39 (≈ 1.1 µM) | CC(O)C1C(=O)N2C(C(=O)O)=C(SC3Cc4nncn4C3)SC12 [A, (5R, 6S, 8R)-6-(1-hydroxyethyl)-2-[(6,7-dihydro-5H-pyrrolo[(2,1-c]-1,2,4-triazol-6-yl)thio]-2-penem-3-carboxylic acid]
0.78 (≈ 2.12 µM) | 0.78 (≈ 2.12 µM) | ≤ 0.05 | 0.1 (≈ 0.272 µM) | 0.2 (≈ 0.544 µM) | CC(O)C1C(=O)N2C(C(=O)[O-])=C(SC3CCn4c[n+](C)cc43)SC12 (single isomer, unassigned) [B]
3.13 (≈ 9.36 µM) | 100 (≈ 299 µM) | 0.1 (≈ 0.299 µM) | 0.39 (≈ 1.17 µM) | 0.78 (≈ 2.33 µM) | CC(O)C1C(=O)N2C(C(=O)O)=C(SCCOC(N)=O)SC12 (stereo not drawn) [Sch 34343, reference compound]

— patent publication US5079357A, “Derivatives of penem” (Daiichi Pharmaceutical Co., Ltd., priority 1985, dated 1992)
